Where two headings read alike, the source gives them in different places.
Assays:
Format in all cases: biochemical
Pim1 kinase = Pim1 kinase (Homo sapiens, UniProt P11309); assay: Pim1 ATP depletion assay;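 note: Luciferase-luciferin luminescence readout of residual ATP after PIM1 transfers phosphate to a peptide substrate, 40 µM ATP added, reaction run to roughly half ATP consumption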
Pim2 kinase = Pim2 kinase (Homo sapiens, UniProt Q9P1W9); assay: Pim2 ATP depletion assay; details: read-out: PIM2 IC50;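 note: Luciferase-based luminescent readout of ATP remaining after PIM2 phosphorylates a BAD peptide, final 5 nM enzyme, 4 µM ATP, 10 µM peptide, 2.5% DMSO, run to roughly half ATP consumption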
Pim3 kinase = Pim3 kinase (Homo sapiens, UniProt Q86V86); assay: Pim3 ATP depletion assay; details: read-out: PIM3 IC50
[1] = Pim1 ATP depletion assay, read-out: PIM1 IC50

Measured: IC50

Pim1 kinase, sequence (P11309 whole entry): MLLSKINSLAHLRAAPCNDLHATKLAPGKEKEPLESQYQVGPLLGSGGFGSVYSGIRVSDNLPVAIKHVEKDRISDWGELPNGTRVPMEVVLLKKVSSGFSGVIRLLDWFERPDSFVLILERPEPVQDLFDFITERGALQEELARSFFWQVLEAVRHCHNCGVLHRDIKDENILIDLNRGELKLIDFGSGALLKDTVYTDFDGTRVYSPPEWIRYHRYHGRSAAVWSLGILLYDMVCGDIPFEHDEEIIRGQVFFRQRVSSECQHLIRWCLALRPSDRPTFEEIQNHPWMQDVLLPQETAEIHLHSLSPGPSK
Pim2 kinase, sequence (Q9P1W9 whole entry): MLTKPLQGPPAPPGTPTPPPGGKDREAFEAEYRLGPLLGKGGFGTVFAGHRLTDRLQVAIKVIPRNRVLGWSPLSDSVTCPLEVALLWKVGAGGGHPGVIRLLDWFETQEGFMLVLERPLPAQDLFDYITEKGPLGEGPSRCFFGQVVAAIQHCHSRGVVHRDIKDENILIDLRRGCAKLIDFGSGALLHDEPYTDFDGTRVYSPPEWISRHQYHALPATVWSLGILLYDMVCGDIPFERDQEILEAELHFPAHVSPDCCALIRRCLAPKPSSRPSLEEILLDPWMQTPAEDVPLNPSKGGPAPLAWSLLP

CCc1ccnc(-c2ccc(N)c(C(=O)Nc3cnccc3N3CCC[C@H](N)C3)n2)c1 [Example 717, 5-Amino-4′-ethyl-[2,2′]bi-pyridinyl-6-carboxylic acid (3-amino-3,4,5,6-tetrahydro-2H-[1,4′]bipyridinyl-3′-yl)-amide]
< 1 µM: Pim1 kinase; [1] | Pim2 kinase | Pim3 kinase

Nc1ccc(-c2cccc(C(F)(F)F)n2)nc1C(=O)Nc1cnccc1N1CCC[C@H](N)C1 [Example 718, 5-Amino-6′-trifluoromethyl-[2,2′]bipyridinyl-6-carboxylic acid (3-amino-3,4,5,6-tetra-hydro-2H-[1,4′]bipyridinyl-3′-yl)-amide]
< 1 µM: Pim1 kinase; [1] | Pim2 kinase | Pim3 kinase

Nc1ccc(-c2ncccc2Cl)nc1C(=O)Nc1cnccc1N1CCC[C@H](N)C1 [Example 719, 5-Amino-3′-chloro-[2,2′]bi-pyridinyl-6-carboxylic acid (3-amino-3,4,5,6-tetrahydro-2H-[1,4′]bipyridinyl-3′-yl)-amide]
< 1 µM: Pim1 kinase; [1] | Pim2 kinase | Pim3 kinase

Nc1ccc(-c2ncc(C(F)(F)F)cc2Cl)nc1C(=O)Nc1cnccc1N1CCC[C@H](N)C1 [Example 720, 5-Amino-3′-chloro-5′-trifluoro-methyl-[2,2′]bipyridinyl-6-carboxylic acid (3-amino-3,4,5,6-tetrahydro-2H-[1,4′]bi-pyridinyl-3′-yl)-amide]
< 1 µM: Pim1 kinase; [1] | Pim2 kinase | Pim3 kinase

Nc1ccc(-c2ncccc2C(F)(F)F)nc1C(=O)Nc1cnccc1N1CCC[C@H](N)C1 [Example 721, 5-Amino-3′-trifluoromethyl-[2,2′]bipyridinyl-6-carboxylic acid (3-amino-3,4,5,6-tetra-hydro-2H-[1,4′]bipyridinyl-3′-yl)-amide]
< 1 µM: Pim1 kinase; [1] | Pim2 kinase | Pim3 kinase

COc1cncc(-c2ccc(N)c(C(=O)Nc3cnccc3N3CCC[C@H](N)C3)n2)n1 [Example 722, 3-Amino-6-(6-methoxy-pyrazin-2-yl)-pyridine-2-carboxylic acid (3-amino-3,4,5,6-tetrahydro-2H-[1,4′]bipyridinyl-3′-yl)-amide]
< 1 µM: Pim1 kinase; [1] | Pim2 kinase | Pim3 kinase

CCOc1cccc(-c2ccc(N)c(C(=O)Nc3cnccc3N3CCC[C@H](N)C3)n2)n1 [Example 723, 5-Amino-6′-ethoxy-[2,2′]bi-pyridinyl-6-carboxylic acid (3-amino-3,4,5,6-tetrahydro-2H-[1,4′]bipyridinyl-3′-yl)-amide]
< 1 µM: Pim1 kinase; [1] | Pim2 kinase | Pim3 kinase

Cc1ccnc(-c2ccc(N)c(C(=O)Nc3cnccc3N3CCC[C@H](N)C3)n2)c1 [Example 724, 5-Amino-4′-methyl-[2,2′]bi-pyridinyl-6-carboxylic acid (3-amino-3,4,5,6-tetrahydro-2H-[1,4′]bipyridinyl-3′-yl)-amide]
< 1 µM: Pim1 kinase; [1] | Pim2 kinase | Pim3 kinase

Cc1ccc(-c2ccc(N)c(C(=O)Nc3cnccc3N3CCC[C@H](N)C3)n2)nc1 [Example 725, 5-Amino-5′-methyl-[2,2′]bi-pyridinyl-6-carboxylic acid (3-amino-3,4,5,6-tetrahydro-2H-[1,4′]bipyridinyl-3′-yl)-amide]
< 1 µM: Pim1 kinase; [1] | Pim2 kinase | Pim3 kinase

Cc1cccc(-c2ccc(N)c(C(=O)Nc3cnccc3N3CCC[C@H](N)C3)n2)n1 [Example 726, 5-Amino-6′-methyl-[2,2′]bi-pyridinyl-6-carboxylic acid (3-amino-3,4,5,6-tetrahydro-2H-[1,4′]bipyridinyl-3′-yl)-amide]
< 1 µM: Pim1 kinase; [1] | Pim2 kinase | Pim3 kinase

Nc1ccc(-c2ccc(F)cn2)nc1C(=O)Nc1cnccc1N1CCC[C@H](N)C1 [Example 727, 5-Amino-5′-fluoro-[2,2′]bi-pyridinyl-6-carboxylic acid (3-amino-3,4,5,6-tetrahydro-2H-[1,4′]bipyridinyl-3′-yl)-amide]
< 1 µM: Pim1 kinase; [1] | Pim2 kinase | Pim3 kinase

Nc1nccc(-c2ccc(N)c(C(=O)Nc3cnccc3N3CCC[C@H](N)C3)n2)n1 [Example 728, 3-Amino-6-(2-amino-pyrimidin-4-yl)-pyridine-2-carboxylic acid (3-amino-3,4,5,6-tetrahydro-2H-[1,4′]bipyridinyl-3′-yl)-amide]
< 1 µM: Pim1 kinase | Pim2 kinase | Pim3 kinase

Nc1cnc(-c2ccc(N)c(C(=O)Nc3cnccc3N3CCC[C@H](N)C3)n2)cn1 [Example 729, 3-Amino-6-(5-amino-pyrazin-2-yl)-pyridine-2-carboxylic acid (3-amino-3,4,5,6-tetrahydro-2H-[1,4′]bipyridinyl-3′-yl)-amide]
< 1 µM: Pim1 kinase; [1] | Pim2 kinase | Pim3 kinase

Nc1ccc(-c2ccccn2)nc1C(=O)Nc1cnccc1N1CCC[C@H](N)C1 [Example 730, 5-Amino-[2,2′]bipyridinyl-6-carboxylic acid (3-amino-3,4,5,6-tetrahydro-2H-[1,4′]bi-pyridinyl-3′-yl)-amide]
< 1 µM: Pim1 kinase; [1] | Pim2 kinase | Pim3 kinase

COc1nc(-c2ccc(N)c(C(=O)Nc3cnccc3N3CCC[C@H](N)C3)n2)cnc1N [Example 731, 3-Amino-6-(5-amino-6-methoxy-pyrazin-2-yl)-pyridine-2-carboxylic acid (3-amino-3,4,5,6-tetrahydro-2H-[1,4′]bi-pyridinyl-3′-yl)-amide]
< 1 µM: Pim1 kinase; [1] | Pim2 kinase | Pim3 kinase

CC(C)NC(=O)c1ccc(F)c(-c2ccc(N)c(C(=O)Nc3cnccc3N3CC[C@@H](O)[C@H](N)C3)n2)c1F [Example 732, 3-Amino-6-(2,6-difluoro-3-isopropylcarbamoyl-phenyl)-pyridine-2-carboxylic acid (3-amino-4-hydroxy-3,4,5,6-tetra-hydro-2H-[1,4′]bipyridinyl-3′-yl)-amide]
< 1 µM: Pim1 kinase; [1] | Pim2 kinase | Pim3 kinase

CC(C)NC(=O)c1ccc(F)c(-c2ccc(N)c(C(=O)Nc3cnccc3N3CC[C@@H](F)[C@H](N)C3)n2)c1F [Example 733, 3-Amino-6-(2,6-difluoro-3-isopropylcarbamoyl-phenyl)-pyridine-2-carboxylic acid (3-amino-4-fluoro-3,4,5,6-tetra-hydro-2H-[1,4′]bipyridinyl-3′-yl)-amide]
< 1 µM: Pim1 kinase; [1] | Pim2 kinase | Pim3 kinase

Nc1ccc(-c2ncccc2F)nc1C(=O)Nc1cnccc1N1CCC(N)C(O)C1 (stereo not drawn) [Example 734, 5-Amino-3′-fluoro-[2,2′]bi-pyridinyl-6-carboxylic acid (4-amino-3-hydroxy-3,4,5,6-tetra-hydro-2H-[1,4′]bipyridinyl-3′-yl)-amide]
< 1 µM: Pim1 kinase; [1] | Pim2 kinase | Pim3 kinase

Nc1ccc(-c2ncccc2F)nc1C(=O)Nc1cnccc1N1CCC(O)C(N)C1 (stereo not drawn) [Example 735, 5-Amino-3′-fluoro-[2,2′]bi-pyridinyl-6-carboxylic acid (3-amino-4-hydroxy-3,4,5,6-tetra-hydro-2H-[1,4′]bipyridinyl-3′-yl)-amide]
< 1 µM: Pim1 kinase; [1] | Pim2 kinase | Pim3 kinase

Cc1ccnc(-c2nc(C(=O)Nc3cnccc3N3CCC[C@H](N)C3)c(N)cc2F)c1F [Example 737, 5-Amino-3,3′-difluoro-4′-methyl-[2,2′]bipyridinyl-6-carboxylic acid (3-amino-3,4,5,6-tetrahydro-2H-[1,4′]bi-pyridinyl-3′-yl)-amide]
< 1 µM: Pim1 kinase; [1] | Pim2 kinase | Pim3 kinase

CCCOc1cncc(-c2nc(C(=O)Nc3cnccc3N3CCC[C@H](N)C3)c(N)cc2F)n1 [Example 738, 3-Amino-5-fluoro-6-(6-propoxy-pyrazin-2-yl)-pyridine-2-carboxylic acid (3-amino-3,4,5,6-tetrahydro-2H-[1,4′]bi-pyridinyl-3′-yl)-amide]
< 1 µM: Pim1 kinase; [1] | Pim2 kinase | Pim3 kinase

CC(C)Oc1cncc(-c2nc(C(=O)Nc3cnccc3N3CCC[C@H](N)C3)c(N)cc2F)n1 [Example 739, 3-Amino-5-fluoro-6-(6-isopropoxy-pyrazin-2-yl)-pyridine-2-carboxylic acid (3-amino-3,4,5,6-tetrahydro-2H-[1,4′]bipyridinyl-3′-yl)-amide]
< 1 µM: Pim1 kinase; [1] | Pim2 kinase | Pim3 kinase

CCOc1cncc(-c2nc(C(=O)Nc3cnccc3N3CCC[C@H](N)C3)c(N)cc2F)n1 [Example 740, 3-Amino-6-(6-ethoxy-pyrazin-2-yl)-5-fluoro-pyridine-2-carboxylic acid (3-amino-3,4,5,6-tetrahydro-2H-[1,4′]bi-pyridinyl-3′-yl)-amide]
< 1 µM: Pim1 kinase; [1] | Pim2 kinase | Pim3 kinase

CC(C)COc1cncc(-c2nc(C(=O)Nc3cnccc3N3CCC[C@H](N)C3)c(N)cc2F)n1 [Example 741, 3Amino-5-fluoro-6-(6-isobutoxy-pyrazin-2-yl)-pyridine-2-carboxylic acid (3-amino-3,4,5,6-tetrahydro-2H-[1,4′]bipyridinyl-3′-yl)-amide]
< 1 µM: Pim1 kinase; [1] | Pim2 kinase | Pim3 kinase
